Molecular target: T1, human matriptase (Homo sapiens, UniProt Q9Y5Y6)
T1 sequence (Q9Y5Y6 1-855): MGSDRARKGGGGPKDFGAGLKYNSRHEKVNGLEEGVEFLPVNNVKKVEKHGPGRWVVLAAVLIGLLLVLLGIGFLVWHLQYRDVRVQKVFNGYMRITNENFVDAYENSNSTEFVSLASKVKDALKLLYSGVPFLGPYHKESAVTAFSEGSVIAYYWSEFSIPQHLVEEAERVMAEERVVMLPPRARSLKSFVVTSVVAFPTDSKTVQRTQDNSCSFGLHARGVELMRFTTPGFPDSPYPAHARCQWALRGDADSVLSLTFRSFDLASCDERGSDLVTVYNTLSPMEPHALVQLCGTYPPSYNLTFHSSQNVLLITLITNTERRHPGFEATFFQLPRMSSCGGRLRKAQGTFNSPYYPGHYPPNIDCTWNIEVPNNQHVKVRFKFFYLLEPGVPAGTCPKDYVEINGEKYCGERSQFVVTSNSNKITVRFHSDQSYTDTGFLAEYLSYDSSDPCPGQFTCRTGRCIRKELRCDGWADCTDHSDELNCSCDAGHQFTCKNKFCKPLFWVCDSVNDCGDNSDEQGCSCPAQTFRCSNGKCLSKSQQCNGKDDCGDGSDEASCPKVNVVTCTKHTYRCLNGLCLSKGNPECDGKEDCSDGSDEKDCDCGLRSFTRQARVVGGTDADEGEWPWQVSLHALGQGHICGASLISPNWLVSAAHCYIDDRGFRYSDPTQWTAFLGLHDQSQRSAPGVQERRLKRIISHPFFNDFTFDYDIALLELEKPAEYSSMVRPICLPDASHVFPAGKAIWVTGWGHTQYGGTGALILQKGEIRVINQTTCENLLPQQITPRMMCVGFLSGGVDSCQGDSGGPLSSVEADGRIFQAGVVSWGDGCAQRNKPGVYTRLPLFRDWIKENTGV
Experiment: Assay for inhibition of matriptase (fluorogenic AMC substrate)
Format: biochemical
Conditions: calculated from velocity by nonlinear regression, competitive inhibition model (GraphPad Prism 5)
Description: The following describes an assay for matriptase as a representative serine protease and is based upon reported methods. (Désilets, A.; Longpré, J.-M.; Beaulieu, M.-E.; Leduc, R. FEBS Lett. 2006, 580, 2227-2232.) Similar assays are applicable and available for other serine proteases.
Enzyme activities were monitored by measuring the release of fluorescence from AMC-coupled peptides (excitation, 360 nm; emission, 441 nm) in a FLX-800 TBE microplate reader (Bio-Tek Instruments, Winooski, Vt., USA). The purified human matriptase was active site titrated with the burst titrant 4-methylumbelliferyl-p-guanidino benzoate (MUGB). Enzymatic assays with matriptase were performed in Tris HCl 100 mM containing 500 µg/mL BSA at pH 9. Human soluble furin was expressed, purified, titrated and assayed as described in the literature (Denault, J. B.; Lazure, C.; Day, R; Leduc, R. Protein Expr. Purif. 2000, 19, 113-124.) The purified HAT protein was active-site titrated with MUGB. Assays with HAT were performed in 50 mM Tris-HCl at pH 8.6.
Enzymes were diluted to concentrations ranging from 4 to 12.5 nM for furin, from 2 to 7 nM for matriptase and 20 pM for HAT and incubated with either 10 μM (for initial screening) […] or appropriate dilutions (for kinetic analysis), for example 0, 500, 1000, 2000 nM or 0, 250, 500, 1000, 2500, 5000 nM, of the test compound for 15 min at RT. Residual enzyme activity was measured by following the hydrolysis of a fluorogenic substrate (4 μM Boc-Arg-Val-Arg-Arg-AMC for furin, Boc-Gln-Ala-Arg-AMC for matriptase and 4 μM Boc-Val-Pro-Arg-AMC for HAT) (Bachem Bioscience, King of Prussia, Pa., USA). Saturation curves were performed in the presence of increasing concentrations of test compounds. Data from three independent experiments or more were typically averaged and residual velocities were plotted as a function of test compound concentration. Data were fitted by non-linear regression analysis to Equation (1) (Bieth, J. G. Methods Enzymol. 1995, 248, 59-84.) using the Enzfitter software (Biosoft, Ferguson, Mo., USA).
vi/v0=1−{([E]0+[I]0+Ki(app))−(([E]0+[I]0+Ki(app))^2−4[E]0[I]0)^1/2}/2[E]0 Equation (1): […]
where v0 and vi are the steady-state rates of substrate hydrolysis in the absence and presence of inhibitor, respectively, [E]0, the initial concentration of enzyme, [I]0, the initial concentration of inhibitor and Ki(app) the substrate-dependent equilibrium dissociation constant. The substrate-independent constant Ki was calculated using Equation (2) (Bieth, J. G. Methods Enzymol. 1995, 248, 59-84.),
Kt=Ki(app)(1+[S]0/Km) Equation (2): […]
The table presents results for matriptase inhibition for representative compounds of the invention.
Ki's can be calculated from the velocity using nonlinear regression analysis. The model used is a competitive enzyme inhibition equation where KmObs=Km*(1+[I]/Ki) and Y=Vmax*X/(KmObs+X). X is the substrate concentration. Y the velocity.

Going from `C[C@@H]1CN[C@@H](C2CC2)C(=O)N(C)[C@H](C)C(=O)N[C@H](Cc2ccc(C(=N)N)cc2)C(=O)NCCCc2ccccc2O1` [Compound 459] to `C[C@@H]1C(=O)N[C@H](Cc2ccc(C(=N)N)cc2)C(=O)NCCCc2ccc(F)cc2OCCN[C@@H](C2CC2)C(=O)N1C` [Compound 451], the Ki rises from 245 nM to 1460 nM (6-fold).

Same assay, conditions: residual matriptase velocity with test compound, substrate Boc-Gln-Ala-Arg-AMC; method gives 10 μM for initial screening; lower = more inhibition

Compared with `C[C@@H]1C(=O)N[C@H](Cc2ccc(C(=N)N)cc2)C(=O)NCCCc2ccc(F)cc2OCCN[C@H](C2CC2)C(=O)N1C` [Compound 456], `C[C@H]1C(=O)N[C@H](Cc2ccc(C(=N)N)cc2)C(=O)NCCCc2ccc(F)cc2OCCN[C@@H](C2CC2)C(=O)N1C` [Compound 455] is higher in “Velocity (FU/min)” value: 2250 FU/min for the first, 2440 FU/min for the second.

First: C[C@@H]1CCc2ccc(F)cc2OCCN[C@@H](C2CC2)C(=O)N(C)[C@H](C)C(=O)N[C@H](Cc2ccc(C(=N)N)cc2)C(=O)N1 [Compound 457]
Second: C[C@@H]1C(=O)N[C@H](Cc2ccc(C(=N)N)cc2)C(=O)NCCCc2ccc(F)cc2OCCN[C@@H](C2CC2)C(=O)N1C [Compound 451]
The “Velocity (FU/min)” value of the first is higher: 1750 FU/min for the first, 1590 FU/min for the second.

First: C[C@@H]1C(=O)N[C@H](Cc2ccc(C(=N)N)cc2)C(=O)NCCc2cccc(c2)CN[C@@H](C2CC2)C(=O)N1C [Compound 473]
Second: C[C@@H]1C(=O)N[C@H](Cc2ccc(C(=N)N)cc2)C(=O)NCCc2ccccc2OCCN[C@@H](C2CC2)C(=O)N1C [Compound 481]
The “Velocity (FU/min)” value of the first is higher: 2375 FU/min for the first, 1875 FU/min for the second.

First: C[C@@H]1C(=O)N[C@H](Cc2ccc(C(=N)N)cc2)C(=O)NCc2ccccc2Sc2ccccc2CN[C@@H](C2CC2)C(=O)N1C [Compound 475]
Second: C[C@@H]1C(=O)N[C@H](Cc2ccc(C(=N)N)cc2)C(=O)NCCc2ccccc2CCCCN[C@@H](C2CC2)C(=O)N1C [Compound 478]
The “Velocity (FU/min)” value of the first is lower: 2125 FU/min for the first, 2440 FU/min for the second.

`C[C@@H]1C(=O)N[C@H](Cc2ccc(C(=N)N)cc2)C(=O)NCCCC2CCCCC2OCCN[C@@H](C2CC2)C(=O)N1C` (stereo partly drawn) [Compound 480] and `C[C@@H]1C(=O)N[C@H](Cc2ccc(C(=N)N)cc2)C(=O)NCCCc2ccccc2OCCN[C@@H](C2CC2)C(=O)N1C` [Compound 464] are the same in “Velocity (FU/min)” value: 1875 FU/min for the first, 1875 FU/min for the second.

Compared with `C[C@@H]1C(=O)N[C@H](Cc2ccncc2)C(=O)NCCCc2ccc(F)cc2OCCN[C@@H](C2CC2)C(=O)N1C` [Compound 495], `C[C@@H]1C(=O)N[C@H](Cc2cccnc2)C(=O)NCCCc2ccc(F)cc2OCCN[C@@H](C2CC2)C(=O)N1C` [Compound 494] is lower in “Velocity (FU/min)” value: 2700 FU/min for the first, 2125 FU/min for the second.

First: C[C@@H]1C(=O)N[C@H](Cc2ccc(C(=N)N)cc2)C(=O)NCCOc2cccc(c2)OCCN[C@@H](C2CC2)C(=O)N1C [Compound 479]
Second: C[C@@H]1C(=O)N[C@H](Cc2ccc(C(=N)N)cc2)C(=O)NC/C=C/c2cccc(c2)OCCN[C@@H](C2CC2)C(=O)N1C [Compound 482]
The “Velocity (FU/min)” value of the first is lower: 2190 FU/min for the first, 2500 FU/min for the second.

`C[C@@H]1C(=O)N[C@H](Cc2c[nH]cn2)C(=O)NCCCc2ccc(F)cc2OCCN[C@@H](C2CC2)C(=O)N1C` [Compound 493] and `C[C@@H]1C(=O)N[C@H](Cc2cscn2)C(=O)NCCCc2ccc(F)cc2OCCN[C@@H](C2CC2)C(=O)N1C` [Compound 496] are the same in “Velocity (FU/min)” value: 2700 FU/min for the first, 2700 FU/min for the second.

First: C[C@@H]1C(=O)N[C@H](CCCN)C(=O)NCCCc2ccc(F)cc2OCCN[C@@H](C2CC2)C(=O)N1C [Compound 487]
Second: C[C@@H]1C(=O)N[C@H](CCCCN)C(=O)NCCCc2ccc(F)cc2OCCN[C@@H](C2CC2)C(=O)N1C [Compound 485]
The “Velocity (FU/min)” value of the first is lower: 2500 FU/min for the first, 2625 FU/min for the second.

First: C[C@@H]1CN[C@@H](C2CC2)C(=O)N(C)[C@H](C)C(=O)N[C@H](Cc2ccc(C(=N)N)cc2)C(=O)NCCCc2ccccc2O1 [Compound 459]
Second: C[C@@H]1CN[C@@H](C2CC2)C(=O)N(C)[C@H](C)C(=O)N[C@H](Cc2ccc(C(N)=O)cc2)C(=O)NCCCc2ccccc2O1 [Compound 498]
The “Velocity (FU/min)” value of the first is lower: 140 FU/min for the first, 580 FU/min for the second.

`C[C@@H]1C(=O)N[C@H](CCCNC(N)=O)C(=O)NCCCc2ccc(F)cc2OCCN[C@@H](C2CC2)C(=O)N1C` [Compound 491] and `C[C@@H]1C(=O)N[C@H](CCCCNC(N)=O)C(=O)NCCCc2ccc(F)cc2OCCN[C@@H](C2CC2)C(=O)N1C` [Compound 492] are the same in “Velocity (FU/min)” value: 2440 FU/min for the first, 2440 FU/min for the second.

Going from `C[C@@H]1C(=O)N[C@H](CCCNC(=N)N)C(=O)NCCCc2ccc(F)cc2OCCN[C@@H](C2CC2)C(=O)N1C` [Compound 488] to `C[C@@H]1C(=O)N[C@H](CCC(N)=O)C(=O)NCCCc2ccc(F)cc2OCCN[C@@H](C2CC2)C(=O)N1C` [Compound 490], the “Velocity (FU/min)” value rises from 2250 FU/min to 2440 FU/min.

Compared with `C[C@@H]1CN[C@@H](C2CC2)C(=O)N(C)[C@H](C)C(=O)N[C@H](Cc2ccc(C(=N)N)cc2)C(=O)NCCCc2ccc(F)cc2O1` [Compound 458], `C[C@@H]1C(=O)N[C@@H](Cc2ccc(C(=N)N)cc2)C(=O)NCCCc2ccc(F)cc2OCCN[C@@H](C2CC2)C(=O)N1C` [Compound 454] is higher in “Velocity (FU/min)” value: 812 FU/min for the first, 2190 FU/min for the second.

Compared with `C[C@@H]1C(=O)N[C@H](Cc2ccc(C(=N)N)cc2)C(=O)NC/C=C/c2ccccc2OCCN[C@@H](C2CC2)C(=O)N1C` [Compound 465], `C[C@@H]1C(=O)N[C@H](Cc2ccc(C(=N)N)cc2)C(=O)NCCCc2ccc(C(=N)N)cc2OCCN[C@@H](C2CC2)C(=O)N1C` [Compound 461] is lower in “Velocity (FU/min)” value: 1125 FU/min for the first, 812 FU/min for the second.

Going from `C[C@@H]1NCCOc2cc(F)ccc2CCCNC(=O)[C@@H](Cc2ccc(C(=N)N)cc2)NC(=O)[C@@H](C)N(C)C1=O` [Compound 467] to `C[C@@H]1C(=O)N[C@H](Cc2ccc(C(N)=O)cc2)C(=O)NCCCc2ccc(C(=N)N)cc2OCCN[C@@H](C2CC2)C(=O)N1C` [Compound 499], the “Velocity (FU/min)” value falls from 2300 FU/min to 937 FU/min.

System: tumor metastasis
Experiment: not given
Conditions: cited from earlier work

In the case of `COC(=O)NC(CCC(=O)O)(Cc1cccc(C(=N)N)c1)C(=O)NCC(=O)N[C@H](C=O)CCCNC(=N)N` (stereo partly drawn) [CVS-3983], the “activity in an in vivo model of tumor metastasis” value is listed as “has shown activity”.

Source: patent publication US20120270769A1, “METHODS OF USING MACROCYCLIC INHIBITORS OF SERINE PROTEASE ENZYMES” (priority 2009, published 2012)
